Assays:
[1] = molecular target: CK2α (Homo sapiens, UniProt P68400); assay: Steady state kinetic analysis of CK2 inhibition (Lineweaver-Burk); format: biochemical; parameters: made in house; host or cells: Escherichia coli (CK2α); conditions: for Ki: increasing ATP
Description: Steady state kinetic analysis of compound 1 complexation with CK2 was performed by incubation of CK2α with increasing concentrations of CK2β in the presence of different concentrations of the compound. ATP and eIF2-derived peptide were present at their saturating concentrations, 100 μM and 600 μM, respectively (Fig. 3e).
In the presence of 100 μM of compound 1, adding increasing concentrations of CK2β-dependent peptide at a saturating concentration of ATP (100 μM) had no effect on the extent of inhibition (Fig. 2d) showing that the inhibition is also not competitive with the peptide substrate. Using steady-state kinetic analysis, we examined the effects of increasing ATP concentrations on the inhibition of phosphorylation by compound 1. In the presence of a saturating concentration of the CK2β-dependent peptide substrate (133 μM), increasing ATP concentrations reduced the level of inhibition but could not restore either the maximal velocity of the enzyme, Vmax, or the Michaelis constant, km, for ATP.
For Olig2 phosphorylation assay, GST-Olig2 fusion protein (3.7 μg) was incubated with 200 nM CK2α, in the absence or presence of 50 μM compound 1 and increasing concentrations of CK2β. Samples were analyzed by SDS PAGE and subjected to autoradiography. Phosphoproteins were quantified by densitometry scanning. For eIF2 peptide phosphorylation assay, the CK2β-dependent peptide substrate (600 μM) was incubated with CK2α (40–50 nM) and increasing concentrations of compound 1 or/and CK2β.
Fig. S2. Ki and Ki’ value determination from enzymatic kinetic characterization of CK2 inhibition by compound 1. (a) Ki value has been calculated from linear regression analysis of the slopes (α/Vmax) of the Lineweaver-Burk double reciprocal plots of Fig 2f. (b) Ki’ value has been calculated from linear regression analysis of the y-intercept (α’/Vmax) of Lineweaver-Burk double reciprocal plots of Fig 2f.

[2] = molecular target: T1, CK2 holoenzyme (Homo sapiens, UniProt P68400); assay: Autophosphorylation of CK2β by CK2 holoenzyme; format: biochemical; conditions: increasing concentrations of compound
T1 construct: made in house; host or cells: Escherichia coli (CK2α)
Description: Fig. S3. Compound 1 inhibits CK2β-dependent phosphorylation of Olig2 transcription factor and CK2β-dependent autophosphorylation. (a) CK2α (200 nM) was incubated with increasing concentrations of CK2β in the absence or presence of compound 1 (50 μM) followed by the addition of GST-Olig2 (3.7 μg), [γ^32P]-ATP (100 μM, 1 μCi) and MgCl2 (10 mM). Samples were analyzed by SDS PAGE and subjected to autoradiography. Left and right parts of the image are from the same gel (see Supplementary Fig. S16). (b) ^32P incorporated into GST-Olig2 was determined by densitometry scanning and is expressed as arbitrary units; (c) CK2β (300 nM) was incubated with increasing concentrations of compound 1, 10 μM [γ^32P] ATP and 10 mM MgCl2. Autophosphorylation was initiated by the addition of 300 nM CK2α. Phosphorylated proteins were separated by SDS/PAGE and analyzed by autoradiography (c) or Coomassie Blue staining (d); ^32P incorporation into CK2β was quantified and expressed as arbitrary units (e). Uncropped blots are shown in Supplementary Fig. S16.

Sequence of CK2α (P68400 whole entry): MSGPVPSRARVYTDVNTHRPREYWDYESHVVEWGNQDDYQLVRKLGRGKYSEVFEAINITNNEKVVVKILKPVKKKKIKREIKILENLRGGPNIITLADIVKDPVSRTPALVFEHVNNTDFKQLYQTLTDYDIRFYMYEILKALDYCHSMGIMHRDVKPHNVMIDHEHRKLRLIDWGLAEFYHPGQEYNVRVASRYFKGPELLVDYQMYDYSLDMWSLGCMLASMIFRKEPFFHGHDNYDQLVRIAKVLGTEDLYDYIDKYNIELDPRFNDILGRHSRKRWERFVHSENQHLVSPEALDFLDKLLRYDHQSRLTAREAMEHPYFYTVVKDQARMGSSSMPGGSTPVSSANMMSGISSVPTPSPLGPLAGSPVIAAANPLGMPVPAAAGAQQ
T1 sequence (P68400 whole entry): as above

COc1[nH]c2ccc(F)cc2c1C(=O)OCC1CCN(CCNS(C)(=O)=O)CC1 [Compound 1]
Ki ([1]; for CK2α, Lineweaver-Burk slopes): 12 µM | Ki ([1]; for the CK2α-ATP complex, Lineweaver-Burk y-intercepts): 62 µM | Ki' (mixed competitive inhibition towards CK2β) ([1]; for the CK2α-ATP complex, increasing CK2β, ATP 100 μM, eIF2-derived peptide 600 μM): ~65 µM | autophosphorylation of CK2β [2]: dose-dependent decrease
